Test results from ChEMBL document CHEMBL5053531, “Development of BromoTag: A "Bump-and-Hole"-PROTAC System to Induce Potent, Rapid, and Selective Degradation of Tagged Target Proteins” (J Med Chem, 2021).
One block for each molecule: values may come before it. The source made the active and inactive calls. No cut-off for these calls is given here.

Assays:
[1] = Half life in C57BL/6 mouse at 5 mg/kg, sc measured up to 8 hrs by LC-MS analysis; type: ADME, organism-based; details: in vivo
[2] = Bioavailability in C57BL/6 mouse at 5 mg/kg, sc measured up to 8 hrs by LC-MS analysis; type: ADME, organism-based; details: in vivo
[3] = AUC (0 to infinity) in C57BL/6 mouse at 5 mg/kg, sc measured up to 8 hrs by LC-MS analysis; type: ADME, organism-based; parameters: dose 5 mg/kg, time < 8 hrs, route sc; details: in vivo
[4] = MRT (0 to infinity) in C57BL/6 mouse at 5 mg/kg, iv measured up to 8 hrs by LC-MS analysis; details: in vivo
[5] = Half life in C57BL/6 mouse at 5 mg/kg, iv measured up to 8 hrs by LC-MS analysis; type: ADME, organism-based; details: in vivo
CWR22R = test: cells; details: Homo sapiens, 22Rv1, 48 h, read-out: pEC50 (converted)
Description: Antiproliferative activity against human BET-sensitive 22Rv1 cells assessed as reduction in cell viability measured after 48 hrs by Celltiter-Glo assay

[6] = Stability in mouse plasma measured up to 60 mins; type: ADME, cell-free; details: 1 h
[7] = target: T1, von Hippel-Lindau disease tumor suppressor/Bromodomain-containing protein 2 (Homo sapiens, UniProt P25440+P40337); test: Bump and hole PROTAC activity at BromoTag-Brd2/VHL-bound E3 ligase in HEK293 cells assessed as Brd2 degradation measured after 6 hrs by Western blot analysis; type: cell-based
Target sequence in this assay (P25440 whole entry): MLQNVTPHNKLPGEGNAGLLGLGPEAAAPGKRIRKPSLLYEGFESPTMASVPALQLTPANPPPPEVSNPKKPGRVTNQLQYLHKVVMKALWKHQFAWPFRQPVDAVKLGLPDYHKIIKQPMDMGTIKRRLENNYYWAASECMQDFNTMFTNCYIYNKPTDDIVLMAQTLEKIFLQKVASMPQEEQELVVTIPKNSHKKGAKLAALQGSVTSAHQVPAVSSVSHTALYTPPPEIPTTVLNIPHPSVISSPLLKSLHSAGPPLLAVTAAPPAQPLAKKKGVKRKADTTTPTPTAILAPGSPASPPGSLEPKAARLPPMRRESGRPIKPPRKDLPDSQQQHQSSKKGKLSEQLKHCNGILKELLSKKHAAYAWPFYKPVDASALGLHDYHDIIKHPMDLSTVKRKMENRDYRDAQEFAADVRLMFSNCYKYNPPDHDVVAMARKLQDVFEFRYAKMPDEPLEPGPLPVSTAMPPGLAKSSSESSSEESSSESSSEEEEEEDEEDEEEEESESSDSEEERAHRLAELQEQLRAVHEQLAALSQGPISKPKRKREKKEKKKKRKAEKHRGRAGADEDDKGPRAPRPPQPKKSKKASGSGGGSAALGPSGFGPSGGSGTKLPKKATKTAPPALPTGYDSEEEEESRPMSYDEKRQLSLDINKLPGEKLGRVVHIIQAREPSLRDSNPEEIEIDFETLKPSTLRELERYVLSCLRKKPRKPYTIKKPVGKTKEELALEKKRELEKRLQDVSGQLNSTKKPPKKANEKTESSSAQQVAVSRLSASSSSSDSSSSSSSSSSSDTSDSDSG
Target sequence in this assay (P40337 whole entry): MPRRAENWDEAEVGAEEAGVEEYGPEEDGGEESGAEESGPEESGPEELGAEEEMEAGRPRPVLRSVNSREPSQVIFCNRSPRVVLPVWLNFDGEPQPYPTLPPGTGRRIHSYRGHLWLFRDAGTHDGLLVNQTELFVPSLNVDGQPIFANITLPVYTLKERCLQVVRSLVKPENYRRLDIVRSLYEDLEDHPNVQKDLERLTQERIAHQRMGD

[8] = target: T1, von Hippel-Lindau disease tumor suppressor/Bromodomain-containing protein 2; test: Bump and hole PROTAC activity at BromoTag-Brd2/VHL-bound E3 ligase in HEK293 cells assessed as Brd2 degradation at 0.001 to 10 uM measured after 6 hrs by Western blot analysis; type: cell-based; details: dose 0.001-10 µM
Target sequence in this assay (P25440 whole entry, looked up): as the sequence (P25440 whole entry) above
Target sequence in this assay (P40337 whole entry, looked up): as the sequence (P40337 whole entry) above

[9] = target: T1, von Hippel-Lindau disease tumor suppressor/Bromodomain-containing protein 2; test: Bump and hole PROTAC activity at BromoTag-Brd2/VHL-bound E3 ligase in HEK293 cells assessed as Brd2 degradation at 1 uM measured after 6 hrs by Western blot analysis; type: cell-based
Target sequence in this assay (P25440 whole entry, looked up): as the sequence (P25440 whole entry) above
Target sequence in this assay (P40337 whole entry, looked up): as the sequence (P40337 whole entry) above

EC50 (CWR22R): 5.01 µM
Compound: CC[C@@H](C(=O)OCCOCCOCCOCC(=O)N[C@H](C(=O)N1C[C@@H](O)C[C@H]1C(=O)NCc1ccc(-c2scnc2C)cc1)C(C)(C)C)[C@@H]1N=C(c2ccc(Cl)cc2)c2c(sc(C)c2C)-n2c(C)nnc21

bioavailability [2]: 140% | Stability [6]: Stable
Compound: CC[C@@H](C(=O)OCCOCCOCCOCC(=O)N[C@H](C(=O)N1C[C@H](O)C[C@H]1C(=O)NCc1ccc(-c2scnc2C)cc1)C(C)(C)C)[C@@H]1N=C(c2ccc(Cl)cc2)c2c(sc(C)c2C)-n2c(C)nnc21

Brd2 degradation activity [8]: Active
Compound: Cc1ncsc1-c1ccc(CNC(=O)[C@@H]2C[C@@H](O)CN2C(=O)[C@@H](NC(=O)COCCOCCOCCNC(=O)C(C)C2N=C(c3ccc(Cl)cc3)c3c(sc(C)c3C)-n3c(C)nnc32)C(C)(C)C)cc1 (mixture of isomers)

Brd2 degradation activity [8]: Active
Compound: Cc1ncsc1-c1ccc(CNC(=O)[C@@H]2C[C@@H](O)CN2C(=O)[C@@H](NC(=O)COCCOCCOCCOC(=O)C(C)C2N=C(c3ccc(Cl)cc3)c3c(sc(C)c3C)-n3c(C)nnc32)C(C)(C)C)cc1 (mixture of isomers)

Further lines, the molecule ahead of its results:

Compound: Cc1ncsc1-c1ccc(CNC(=O)[C@@H]2C[C@@H](O)CN2C(=O)[C@@H](NC(=O)COCCOCCOCCNC(=O)C[C@@H]2N=C(c3ccc(Cl)cc3)c3c(sc(C)c3C)-n3c(C)nnc32)C(C)(C)C)cc1
half-life [1]: 2.95 h | bioavailability [2]: 83% | AUC(0-inf) [3]: 3.76 µM·h | MRT inf [4]: 0.34 h | half-life [5]: 1.04 h

Compound: CCC(C(=O)OCCOCCCOCC(=O)N[C@H](C(=O)N1C[C@H](O)C[C@H]1C(=O)N[C@@H](C)c1ccc(-c2scnc2C)cc1)C(C)(C)C)C1N=C(c2ccc(Cl)cc2)c2c(sc(C)c2C)-n2c(C)nnc21 (mixture of isomers)
pDC50 [7]: 7.8

Compound: CCC(C(=O)NCCOCCCOCC(=O)N[C@H](C(=O)N1C[C@H](O)C[C@H]1C(=O)N[C@@H](C)c1ccc(-c2scnc2C)cc1)C(C)(C)C)C1N=C(c2ccc(Cl)cc2)c2c(sc(C)c2C)-n2c(C)nnc21 (mixture of isomers)
Brd2 degradation activity [8]: Active

Compound: CC[C@@H](C(=O)NCCOCCOCCOCC(=O)N[C@H](C(=O)N1C[C@H](O)C[C@H]1C(=O)NCc1ccc(-c2scnc2C)cc1)C(C)(C)C)[C@@H]1N=C(c2ccc(Cl)cc2)c2cc(OC)ccc2-n2c(C)nnc21 (mixture of isomers)
Activity [9]: inactive

Compound: CC[C@@H](C(=O)NCCOCCOCCOCC(=O)N[C@H](C(=O)N1C[C@H](O)C[C@H]1C(=O)NCc1ccc(-c2scnc2C)cc1)C(C)(C)C)[C@@H]1N=C(c2ccc(Cl)cc2)c2ccc(OC)cc2-n2c(C)nnc21 (mixture of isomers)
Activity [9]: inactive

Compound: COc1ccc2c(c1)-n1c(C)nnc1[C@H]([C@@H](C)C(=O)NCCOCCOCCOCC(=O)N[C@H](C(=O)N1C[C@H](O)C[C@H]1C(=O)NCc1ccc(-c3scnc3C)cc1)C(C)(C)C)N=C2c1ccc(Cl)cc1 (mixture of isomers)
Activity [9]: inactive

Compound: Cc1ncsc1-c1ccc([C@H](C)NC(=O)[C@@H]2C[C@@H](O)CN2C(=O)[C@@H](NC(=O)COCCCOCCNC(=O)C(C)C2N=C(c3ccc(Cl)cc3)c3c(sc(C)c3C)-n3c(C)nnc32)C(C)(C)C)cc1 (mixture of isomers)
Brd2 degradation activity [8]: Active

Compound: Cc1ncsc1-c1ccc([C@H](C)NC(=O)[C@@H]2C[C@@H](O)CN2C(=O)[C@@H](NC(=O)COCCCOCCOC(=O)C(C)C2N=C(c3ccc(Cl)cc3)c3c(sc(C)c3C)-n3c(C)nnc32)C(C)(C)C)cc1 (mixture of isomers)
Brd2 degradation activity [8]: Active
